Experimental data reported in patent US20180296537A1, “METHODS AND COMPOSITIONS FOR DIAGNOSING, TREATING, AND MONITORING TREATMENT OF SHANK3 DEFICIENCY ASSOCIATED DISORDERS” (Novartis AG, priority 2015, published 2018).
Where a SMILES comes first, the peptide text is derived from it. The star is where a group is joined. Cbz = O=C(OCc1ccccc1)*

Legend:
CA1 pyramidal neurons = experiment: Dendritic spine density in hippocampal organotypic slice cultures; format: cell-based, mouse
Method: Wilde type (C57B1/6) mice were housed in a temperature-controlled room and maintained on a 12 hr light/dark cycle. Food and water were available ad libitum and experiments were carried out in accordance with the local authorization guidelines for the care and use of laboratory animals. Slice cultures were established according to the procedure described by Stoppini and colleagues (Galimberti et al., 2006; Stoppini et al., 1991). […] For organotypic slice cultures, brains of P6-P9 transgenic mice were dissected in cold MEM (GIBCO) medium, and hippocampal coronal sections of 400 μm were obtained with a tissue chopper (McIlwain). Slices were selected, placed on Millicell (Millipore, PICM03050) and cultured in 6-well dishes at 35° C. and 5% CO2 in the presence of 1 ml of medium. The entire slice isolation procedure took about 30 min. The culture medium was exchanged every third day. Treatments were performed in fresh culture medium for the indicated time periods.
Brain slices were transfected with plasmids encoding shCont, and shShank3 using helios gene gun system (Bio-Rad Laboratories, #165-2431) as previously described (Proenca et al., 2013). Subsequently, slices were fixed, stained, mounted, and analyzed following the protocols described below in the immunohistochemistry and microscopy paragraphs.
Slices were fixed for 10 minutes in 4% PFA, washed in PBS and blocked for 4 hr at room temperature in 0.3% Triton X-100 20% Horse Serum/PBS (blocking solution). GFP primary antibody was incubated for 24 hr at 4° C. in the blocking solution. Afterwards, slices were washed in PBS, incubated for 2 hr in 0.3% Triton X-100/PBS with Alexa Fluor® 488 Donkey anti-chicken secondary antibody (Life technologies). Finally, slices were washed in PBS, incubated 10 minutes with DAPI (Life technologies) and mounted on glass slides using ProLong mountant (Life technologies).
High resolution images were acquired on an upright Zeiss LSM700 confocal microscope, using a Plan-Neofluar 100×/1.3 oil immersion objective. For the analysis of dendritic spine density, confocal 3D stacks were acquired in CA1 region for each experiment. To quantify spine density, a stretch of approximately 30 μm was selected on secondary dendrites originating at the branch point from the primary dendrite. Only secondary dendrites were considered to reduce variability. Dendritic length was measured using the ImageJ plugin, Simple Neurite tracer, and spine density manually counted using the Cell Counter plugin.
The above findings implicate CLK2 overexpression as a specific anomaly that is causative for attenuated Akt activity in neurons deficient for Shank3. Consequently, inhibiting CLK2 activity or directly activating Akt would restore neuronal impairments associated with Shank3 loss of function. First, a small-molecule Akt-activator, SC79, was tested for its ability to restore Akt phosphorylation (FIG. 5A). SC79 binds directly to Akt to facilitate an ‘open’ conformation of the protein that is accessible to upstream activating kinases (eg. PDK1). This obviates the need for PtdIns(3,4,5)P3 (PIP3) production and recruitment of Akt to the plasma membrane (Rodgers, Cell Metab. 11, 23-34, 2010). […] Decreased principal neuron dendritic spine density has frequently been observed in Shank3 loss of function models (Durand et al., 2007, Nature Genetics 39: 25-27; Peca et al., 2011, Nature 472: 437-442; Verpelli et al., 2011, The Journal of Biological Chemistry 286: 34839-34850). Knock-down of Shank3 in hippocampal organotypic slice cultures, via biolistic transfection of shRNA vectors, faithfully recapitulated this phenotype in CA1 pyramidal neurons, whereby a two-fold reduction in apical dendrite spine density resulted (FIG. 6A). […]

Akt = experiment: Western blot of Akt phosphorylation in rat primary cortical neurons (Shank3 knock down vs control); format: cell-based; conditions: DIV 16
Excerpt: E18 primary rat cortical neurons were dissected, cultured and infected 6 days after plating (DIV6) with indicated lentiviruses at MOI 10, as previously described (Proenca et al., 2013). Lentiviruses were produced by calcium phosphate transfection of HEK293T cells with packaging plasmids (Life Technologies) and transfer plasmid in 10 cm dishes. Cells were transferred to fresh medium 6 hrs. post-transfection. Four days post-transfection, the cell medium was collected and pooled from several dishes, cleared of cellular debris by 0.45 μm filtration, and concentrated 100× by centrifugation at 19,000 g for 90 min in a Beckman Ultracentrifuge using a SW28/SW32 rotor. Pellets were suspended in PBS/0.5% BSA and viral titer was determined by ELISA quantification of viral p24 antigen (Zeptometrix Corp, USA). For shRNA plasmid generation, oligonucleotides were annealed and ligated into lentiviral transfer plasmid pLKO.1-GFP vector at the AgeI/EcoRI sites. The target sequences of shRNAs that target rat and mouse Shank3 (5′-3′) are: […] […] (SEQ ID NO: 2), and […] (SEQ ID NO: 3). The latter was previously reported (Verpelli et al., 2011). A luciferase-targeting sequence was used as an shRNA control: […] (SEQ ID NO: 4).
For immunoprecipitation (IP) of HA-tagged Akt, neurons were lysed in IP buffer (20 mM Tris-HCl pH 7.4, 3 mM EDTA, 3 mM EGTA, 150 mM NaCl, 0.5% NP-40, and protease/phosphatase inhibitor cocktails (Roche)). Lysates were cleared by centrifugation at 13,000 rpm for 10 min and lysates normalized for protein abundance were immunoprecipitated with rabbit HA-tag antibody for 1 h at 4° C. Immuno-complexes were then captured by incubation for an additional 1 hr with Protein A agarose beads (Roche). Beads were washed three times with IP buffer and bound proteins were eluted with 2×SDS-PAGE sample buffer, then boiled for 5 min. For IP and analysis of ubiquitinated Myc-Clk2, neurons were lysed in Ubiquitin IP buffer (20 mM Tris-HCl pH 7.4, 3 mM EDTA, 3 mM EGTA, 150 mM NaCl, 1% Triton X-100, protease/phosphatase inhibitor cocktails (Roche), 5 mM N-ethylmaleimide, and 3 mM iodoacetamide) containing 1% SDS. Lysates were boiled for 20 min to denature proteins and then centrifuged for 10 min at 13,000 rpm. Lysates were subsequently diluted to 0.1% SDS with Ubiquitin IP buffer and immunoprecipitated with Myc antibody for 1 h. Complexes were then captured by addition of Protein G agarose (Roche) and additional 1 h incubation. Beads were washed 3× and eluted with 2×SDS-PAGE sample buffer, then boiled for 5 min. Samples prepared for SDS-PAGE were then resolved on 4-12% Novex gels (Life Technologies), transferred to PVDF membranes, blocked in 5% low-fat milk in TBS/0.1% Tween-20, and incubated overnight with primary antibodies. After washing and 1 h incubation with secondary antibodies, proteins were visualized by Chemiluminescent detection (Amersham-GE Healthcare Life Sciences).
To determine whether Shank3 deficiency impacts the PI3K-Akt-mTOR signaling pathway (FIG. 1A, gray highlight), lentiviral-mediated delivery of shRNAs was used to knock-down Shank3 in rat primary cortical neuron cultures. Cultured rat primary cortical neurons were transduced with lentiviruses encoding control shRNA or Shank3-shRNA at six days in vitro (DIV 6) and treated with BDNF (50 ng/ml) for 15 or 30 min at 14-16 days in vitro (DIV 14-16). Cell lysates were prepared in RIPA buffer prior to resolution by SDS-PAGE and Western blotting.
Cortical neurons, transduced with shRNA-expressing lentiviruses on DIV 6, were treated with 50 ng/ml BDNF or okadaic acid (100 nM) on DIV 16 and cell lysates were resolved by SDS-PAGE, followed by Western blotting.

PMDS patients = conditions: pilot studies; cited from earlier work
PMDS neurons = conditions: cited from earlier work
Shank3 knock-out mice = conditions: cited from earlier work
CLK2 = experiment: Western blot of CLK2 protein expression in primary neurons; format: cell-based, rat
Excerpt: E18 primary rat cortical neurons were dissected, cultured and infected 6 days after plating (DIV6) with indicated lentiviruses at MOI 10, as previously described (Proenca et al., 2013). Lentiviruses were produced by calcium phosphate transfection of HEK293T cells with packaging plasmids (Life Technologies) and transfer plasmid in 10 cm dishes. Cells were transferred to fresh medium 6 hrs. post-transfection. Four days post-transfection, the cell medium was collected and pooled from several dishes, cleared of cellular debris by 0.45 μm filtration, and concentrated 100× by centrifugation at 19,000 g for 90 min in a Beckman Ultracentrifuge using a SW28/SW32 rotor. Pellets were suspended in PBS/0.5% BSA and viral titer was determined by ELISA quantification of viral p24 antigen (Zeptometrix Corp, USA). For shRNA plasmid generation, oligonucleotides were annealed and ligated into lentiviral transfer plasmid pLKO.1-GFP vector at the AgeI/EcoRI sites. The target sequences of shRNAs that target rat and mouse Shank3 (5′-3′) are: […] (SEQ ID NO: 1), […] (SEQ ID NO: 2), and […] (SEQ ID NO: 3). The latter was previously reported (Verpelli et al., 2011). A luciferase-targeting sequence was used as an shRNA control: […] (SEQ ID NO: 4).
For immunoprecipitation (IP) of HA-tagged Akt, neurons were lysed in IP buffer (20 mM Tris-HCl pH 7.4, 3 mM EDTA, 3 mM EGTA, 150 mM NaCl, 0.5% NP-40, and protease/phosphatase inhibitor cocktails (Roche)). Lysates were cleared by centrifugation at 13,000 rpm for 10 min and lysates normalized for protein abundance were immunoprecipitated with rabbit HA-tag antibody for 1 h at 4° C. Immuno-complexes were then captured by incubation for an additional 1 hr with Protein A agarose beads (Roche). Beads were washed three times with IP buffer and bound proteins were eluted with 2×SDS-PAGE sample buffer, then boiled for 5 min. […]

## O=c1[nH]c2ccccc2n1C1CCN(Cc2ccc(-c3nc4cc5[nH]cnc5cc4nc3-c3ccccc3)cc2)CC1 [Akti]
CA1 pyramidal neurons; Shank3 knock down neurons, 10 μM Akti included in TG003 treatment
  effect of TG003 on spine density with Akt inhibitor: blocked
CA1 pyramidal neurons; Thy1-mGFP transfected slice cultures, 10 μM Akti 24 h, fixed DIV14
  dendritic spine density: sufficient to reduce dendritic spine density

## C=C1[C@@H](O)[C@@H]2O[C@]3(CC[C@H](/C=C/[C@@H](C)[C@@H]4CC(C)=C[C@@]5(O[C@H](C[C@@](C)(O)C(=O)O)CC[C@H]5O)O4)O3)CC[C@H]2O[C@@H]1[C@@H](O)C[C@H](C)[C@H]1O[C@@]2(CCCCO2)CC[C@H]1C [okadaic acid]
Akt; okadaic acid 100 nM
  increase of Akt T308 phosphorylation in Shank3 knock down neurons versus increase in control neurons: two-fold greater
Akt; okadaic acid 100 nM, alone or with 50 ng/ml BDNF, control and Shank3 knock down neurons
  Akt T308 phosphorylation: enhanced Akt T308 phosphorylation in both control and Shank3 knock down neurons

## insulin: insulin
PMDS patients
  motor, cognitive and social impairments: beneficial

## wild type B56β: Flag-tagged wild type B56β regulatory subunit of PP2A, expressed by lentiviral transduction
Akt; Shank3 knock down neurons, lentiviral co-expression of Flag-tagged B56β, 50 ng/ml BDNF
  Akt phosphorylation: had no effect

## IGF-1: insulin-like growth factor-1
PMDS patients
  motor, cognitive and social impairments: beneficial
PMDS neurons
  synaptic impairment: alleviated
CA1 pyramidal neurons; Shank3 knockdown neurons, 1 μg/ml IGF-1 24 h, with or without 10 μM Akti, fixed DIV 14
  dendritic spine density: restored normal dendritic spine density to Shank3 knockdown neurons, in an Akt-dependent manner
Shank3 knock-out mice
  synaptic and motor deficits: alleviated synaptic and motor deficits in Shank3 knock-out mice

## CC(C)C[C@@H](C=O)NC(=O)[C@H](CC(C)C)NC(=O)[C@H](CC(C)C)NC(=O)OCc1ccccc1 [MG132] (Cbz-Leu-Leu-Leu-aldehyde)
CLK2; control cells, 2.5 or 20 μM MG132, 30 minutes
  CLK2 protein level: rapid increase of CLK2 in control cells

B1: BDNF: brain derived neurotrophic factor (protein, UniProt P23560 19-247, looked up)
Neurotrophic factor BDNF …: APMKEANIRGQGGLAYPGVRTHGTLESVNGPKAGSRGLTSLADTFEHVIEELLDEDQKVRPNEENNKDADLYTSRVMLSSQVPLEPPLLFLLEEYKNYLDAANMSMRVRRHSDPARRGELSVCDSISEWVTAADKKTAVDMSGGTVTVLEKVPVSKGQLKQYFYETKCNPMGYTKEGCRGIDKRHWNSQCRTTQSYVRALTMDSKKRIGWRFIRIDTSCVCTLTIKRGR
CLK2; Shank3 knock down neurons, BDNF treatment
  CLK2 protein level: elicited no significant further increase of CLK2 levels
CLK2; control neurons, BDNF 30 minutes
  CLK2 protein level: induced the accumulation of CLK2 in control neurons
